Measurements taken from patent US20150225369A1, “DDR2 INHIBITORS FOR THE TREATMENT OF OSTEOARTHRITIS” (Merck Patent GmbH, priority 2012, published 2015).

Each compound was assayed against T1, His-tagged human recombinant DDR-2 kinase domain (His-TEV-DDR2 467-855 aa) (Homo sapiens, UniProt Q16832) (assay: Autophosphorylation assay for biochemical activity testing of DDR2 (HTRF)). Conditions: 4 nM DDR2 kinase domain, 150 μM ATP, 150 min at 22° C.
T1 construct: His-TEV-DDR2 467-855 aa
T1 sequence (Q16832 467-855): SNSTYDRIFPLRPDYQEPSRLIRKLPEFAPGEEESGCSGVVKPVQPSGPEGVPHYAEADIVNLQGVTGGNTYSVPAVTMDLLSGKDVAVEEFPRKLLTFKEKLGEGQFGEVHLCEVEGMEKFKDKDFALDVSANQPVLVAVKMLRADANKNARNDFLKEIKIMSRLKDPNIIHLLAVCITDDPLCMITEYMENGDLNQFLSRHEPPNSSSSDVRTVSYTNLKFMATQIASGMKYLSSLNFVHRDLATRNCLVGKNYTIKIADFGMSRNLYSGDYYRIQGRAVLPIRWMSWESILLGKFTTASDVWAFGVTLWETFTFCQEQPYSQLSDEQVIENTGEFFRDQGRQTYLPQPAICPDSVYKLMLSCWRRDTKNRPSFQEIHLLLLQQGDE
Method: The autophosphorylation assay was run in two steps: the enzymatic reaction in which His-tagged DDR2 with ATP as co-substrate phosphorylates itself and the detection reaction where a time resolved FRET between XL665® labelled anti-6His antibody bound to the His-tag of the enzyme and cryptate labelled anti-phospho-Tyrosine-antibody (PT66) bound the phosphorylated Tyrosine residue of DDR2 was analysed. The autophosphorylation activity was detectable directly via the increase in HTRF signal.
The autophosphorylation assay was performed as 1536 well or 384 well HTRF® (Cisbio, Codolet, France) assay format in Greiner low volume medium binding 384-well microtiter plates and was used for high throughput screen. […] The ratio of the emission signals was determined. The full value used was the inhibitor-free reaction.

Row | SMILES | IC50
1 | CNC(=O)c1cc(Oc2ccc(CNC(=O)Nc3cc(Cl)nc(Cl)c3)cc2)ccn1 [compound 2] | 1500 nM
2 | CNC(=O)c1cc(Oc2ccc(CNC(=O)Nc3ccccn3)cc2)ccn1 [compound 3] | 3800 nM
3 | CNC(=O)c1cc(Oc2ccc(COC(=O)Nc3cc(C(F)(F)F)ccn3)cc2)ccn1 [compound 3] | 33 nM
4 | CNC(=O)c1cc(Oc2ccc(CNC(=O)Nc3cccnc3OC)cc2)ccn1 [compound 4] | 1600 nM
5 | CNC(=O)c1cc(Oc2ccc(COC(=O)Nc3cc(C(F)(F)F)ccn3)cc2C)ccn1 [compound 4] | 41 nM
6 | CNC(=O)c1cc(Oc2ccc(CNC(=O)Nc3cccnc3)cc2)ccn1 [compound 5] | 15000 nM
7 | CNC(=O)c1cc(Oc2ccc(COC(=O)Nc3cc(C(F)(F)F)cnc3O)cc2)ccn1 [compound 5] | 610 nM
8 | CNC(=O)c1cc(Oc2ccc(CNC(=O)Nc3ccnc(Cl)c3)cc2)ccn1 [compound 6] | 1000 nM
9 | CNC(=O)c1cc(Oc2ccc(CNC(=O)Nc3ncc(C(F)(F)F)cc3Cl)cc2)ccn1 [compound 7] | 6600 nM
10 | Cn1cc(C(F)(F)F)cc(NC(=O)NCc2ccc(Oc3ccnc4ccccc34)cc2)c1=O [compound 9] | 51 nM
11 | CNC(=O)c1cc(Oc2ccc(CNC(=O)Nc3cnc4ccccc4c3)cc2)ccn1 [compound 10] | 290 nM
12 | CCn1cc(C(F)(F)F)cc(NC(=O)NCc2ccc(Oc3ccnc(C(=O)NC)c3)cc2)c1=O [compound 11] | 91 nM
13 | CNC(=O)c1cc(Oc2ccc(CNC(=O)Nc3cc4ccccc4nc3OC)cc2)ccn1 [compound 11] | 190 nM
14 | CNC(=O)c1cc(Oc2ccc(CNC(=O)Nc3cc(C(F)(F)F)cn(Cc4ccccc4)c3=O)cc2)ccn1 [compound 12] | 260 nM
15 | CNC(=O)c1cc(Oc2ccc(CNC(=O)Nc3ccc(C)cn3)cc2)ccn1 [compound 12] | 2000 nM
16 | CNC(=O)c1cc(Oc2ccc(CNC(=O)Nc3ccc(C)cn3)cc2C)ccn1 [compound 13] | 780 nM
17 | Cn1cc(C(F)(F)F)cc(NC(=O)NCc2ccc(Oc3ccncc3C(F)(F)F)cc2)c1=O [compound 13] | 1600 nM
18 | CNC(=O)c1cc(Oc2ccc(CNC(=O)Nc3cc(C)ccn3)cc2)ccn1 [compound 14] | 570 nM
19 | CNC(=O)c1cc(Oc2ccc(CNC(=O)Nc3cc(C)ccn3)cc2C)ccn1 [compound 15] | 400 nM
20 | CNC(=O)c1cc(Oc2ccc(CNC(=O)Nc3cccnc3Cl)cc2)ccn1 [compound 16] | 11000 nM
21 | CNC(=O)c1cc(Oc2ccc(CNC(=O)Nc3ccc(OC)nc3)cc2)ccn1 [compound 17] | 5600 nM

Second part, the compound after the results:

Row | IC50 | SMILES
22 | 710 nM | CNC(=O)c1cc(Oc2ccc(CNC(=O)Nc3cc(C)cnc3Cl)cc2)ccn1 [compound 22]
23 | 230 nM | COc1ncc(C)cc1NC(=O)NCc1ccc(Oc2ccnc(C)c2)c(C)c1 [compound 31]
24 | 7100 nM | Cc1cc(Oc2ccc(CNC(=O)Nc3cnc4ccccc4c3)cc2C)ccn1 [compound 32]
25 | 1700 nM | COc1nc2ccccc2cc1NC(=O)NCc1ccc(Oc2ccnc(C)c2)c(C)c1 [compound 33]
26 | 11000 nM | Cc1cc(Oc2ccc(CNC(=O)Nc3cc4ccccc4cn3)cc2C)ccn1 [compound 34]

Same assay, conditions: Table 6; 4 nM DDR2 kinase domain, 150 μM ATP

Row | IC50 | SMILES
27 | 21000 nM | CNC(=O)c1cc(Oc2ccc(C(O)CC(=O)Nc3ccc(Cl)c(C(F)(F)F)c3)cc2C)ccn1 (centres unmarked) [compound 2]
28 | 1600 nM | CNC(=O)c1cc(Oc2ccc(CCC(=O)Nc3ccc(Cl)c(C(F)(F)F)c3)cc2C)ccn1 [compound 3]
29 | 570 nM | CNC(=O)c1cc(Oc2ccc(OCC(=O)Nc3cc(C(F)(F)F)cn(C)c3=O)cc2)ccn1 [compound 4]

Same assay, conditions: biochemical DDR2 autophosphorylation

Row | SMILES | IC50
30 | O=C(NCc1ccc(Oc2ccncc2)cc1)Nc1cc(Cl)c(Cl)cc1Cl [compound 2] | 1400 nM
31 | O=C(NCc1ccc(Oc2ccncc2)cc1)Nc1cccc(C(F)(F)F)c1 [compound 4] | 36 nM
32 | O=C(NCc1ccc(Oc2ccncc2)cc1)Nc1ccc(Cl)cc1Cl [compound 5] | 1400 nM
33 | Cc1cccc(NC(=O)NCc2ccc(Oc3ccncc3)cc2)c1 [compound 6] | 1000 nM
34 | CC(=O)c1cccc(NC(=O)NCc2ccc(Oc3ccncc3)cc2)c1 [compound 7] | 10000 nM
35 | O=C(NCc1ccc(Oc2ccncc2)cc1)Nc1ccc(Br)cc1 [compound 9] | 3800 nM
36 | O=C(NCc1ccc(Oc2ccncc2)cc1)Nc1cc(Cl)ccc1Cl [compound 10] | 270 nM
37 | O=C(NCc1ccc(Oc2ccncc2)cc1)Nc1ccc(F)cc1 [compound 11] | 3400 nM
38 | O=C(NCc1ccc(Oc2ccncc2)cc1)Nc1cccc(Cl)c1Cl [compound 13] | ≥ 100000 nM
39 | CNC(=O)c1cc(Oc2ccc(CNC(=O)Nc3ccccc3OC)cc2)ccn1 [compound 14] | 1900 nM
40 | COc1ccc(OC)c(NC(=O)NCc2ccc(Oc3ccncc3)cc2)c1 [compound 15] | 440 nM
41 | O=C(NCc1ccc(Oc2ccncc2)cc1)Nc1ccc(Cl)cc1 [compound 16] | 5900 nM

Other lines, results leading:

Row | IC50 | SMILES
42 | 13000 nM | COc1ccc(NC(=O)NCc2ccc(Oc3ccncc3)cc2)cc1 [compound 17]
43 | 4100 nM | Cc1ccc(NC(=O)NCc2ccc(Oc3ccncc3)cc2)cc1 [compound 18]
44 | 98 nM | CNC(=O)c1cc(Oc2ccc(CNC(=O)Nc3cc(OC)ccc3OC)cc2)ccn1 [compound 20]
45 | 2000 nM | O=C(NCc1ccc(Oc2ccncc2)cc1)Nc1ccc(C(F)(F)F)cc1 [compound 21]
46 | 560 nM | O=C(NCc1ccc(Oc2ccncc2)cc1)Nc1cc(C(F)(F)F)cc(C(F)(F)F)c1 [compound 22]
47 | ≥ 100000 nM | Cc1cccc(NC(=O)NCc2ccc(Oc3ccncc3)cc2)c1C [compound 24]
48 | 13000 nM | Cc1ccc(C)c(NC(=O)NCc2ccc(Oc3ccncc3)cc2)c1 [compound 25]
49 | 20000 nM | O=C(NCc1ccc(Oc2ccncc2)cc1)Nc1ccccc1C(F)(F)F [compound 26]
50 | 740 nM | Cc1ccc(NC(=O)NCc2ccc(Oc3ccncc3)cc2)cc1Cl [compound 27]
51 | ≥ 100000 nM | CCc1ccccc1NC(=O)NCc1ccc(Oc2ccncc2)cc1 [compound 28]
52 | ≥ 100000 nM | Cc1ccccc1NC(=O)NCc1ccc(Oc2ccncc2)cc1 [compound 29]
53 | 28000 nM | Cc1ccc(NC(=O)NCc2ccc(Oc3ccncc3)cc2)c(C)c1 [compound 30]
54 | 87 nM | COc1ccc(Cl)cc1NC(=O)NCc1ccc(Oc2ccncc2)cc1 [compound 32]
55 | ≥ 100000 nM | O=C(NCc1ccc(Oc2ccncc2)cc1)Nc1ccccc1Cl [compound 33]
56 | 5500 nM | CSc1cccc(NC(=O)NCc2ccc(Oc3ccncc3)cc2)c1 [compound 34]
57 | 9500 nM | O=C(NCc1ccc(Oc2ccncc2)cc1)Nc1ccc(Br)cc1Cl [compound 35, 1-(4-Bromo-2-chloro-phenyl)-3-[4-(pyridin-4-yloxy)-benzyl]-urea]
58 | 1700 nM | COc1ccccc1NC(=O)NCc1ccc(Oc2ccncc2)cc1 [compound 36, 1-(2-Methoxy-phenyl)-3-[4-(pyridin-4-yloxy)-benzyl]-urea]
59 | 2800 nM | O=C(NCc1ccc(Oc2ccncc2)cc1)Nc1ccc(C(F)(F)F)cc1Cl [compound 37, 1-(2-Chloro-4-trifluoromethyl-phenyl)-3-[4-(pyridin-4-yloxy)-benzyl]-urea]
60 | 2100 nM | O=C(NCc1ccc(Oc2ccncc2)cc1)Nc1ccc(Cl)c(Cl)c1 [compound 38, 1-(3,4-Dichloro-phenyl)-3-[4-(pyridin-4-yloxy)-benzyl]-urea]
61 | 9900 nM | O=C(NCc1ccc(Oc2ccncc2)cc1)Nc1ccc(Cl)cc1C(F)(F)F [compound 40, 1-(4-Chloro-2-trifluoromethyl-phenyl)-3-[4-(pyridin-4-yloxy)-benzyl]-urea]
62 | ≥ 100000 nM | CCOc1ccc(NC(=O)NCc2ccc(Oc3ccncc3)cc2)cc1 [compound 41, 1-(4-Ethoxy-phenyl)-3-[4-(pyridin-4-yloxy)-benzyl]-urea]
63 | 42 nM | O=C(NCc1ccc(Oc2ccncc2)cc1)Nc1cc(C(F)(F)F)ccc1Cl [compound 43, 1-(2-Chloro-5-trifluoromethyl-phenyl)-3-[4-(pyridin-4-yloxy)-benzyl]-urea]
64 | 1800 nM | Cc1cc(C)cc(NC(=O)NCc2ccc(Oc3ccncc3)cc2)c1 [compound 44, 1-(3,5-Dimethyl-phenyl)-3-[4-(pyridin-4-yloxy)-benzyl]-urea]
65 | 4000 nM | COc1cccc(NC(=O)NCc2ccc(Oc3ccncc3)cc2)c1 [compound 45, 1-(3-Methoxy-phenyl)-3-[4-(pyridin-4-yloxy)-benzyl]-urea]
66 | 100 nM | O=C(NCc1ccc(Oc2ccncc2)cc1)Nc1ccc(F)c(C(F)(F)F)c1 [compound 46, 1-(4-Fluoro-3-trifluoromethyl-phenyl)-3-[4-(pyridin-4-yloxy)-benzyl]-urea]
67 | 8800 nM | CC(=O)c1ccc(NC(=O)NCc2ccc(Oc3ccncc3)cc2)cc1 [compound 47, 1-(4-Acetyl-phenyl)-3-[4-(pyridin-4-yloxy)-benzyl]-urea]
68 | ≥ 100000 nM | O=C(NCc1ccc(Oc2ccncc2)cc1)Nc1ccccc1Br [compound 48, 1-(2-Bromo-phenyl)-3-[4-(pyridin-4-yloxy)-benzyl]-urea]
